Measurements from patent US6737383B1, “Herbicidal oxadiazolidines” (priority 1999, dated 2004).

What was measured:
surinam grass = test: Test B pre/postemergence surinam grass; assay type: in vivo, Brachiaria decumbens
Summary of the method: (§1)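 Test chemicals in a non-phytotoxic solvent mixture with surfactant were sprayed preemergence onto planted seeds and postemergence onto plants 2 to 18 cm tall (1- to 4-leaf stage). After twelve to sixteen days in a greenhouse, injury was visually rated against untreated controls from 0 (no effect) to 10 (complete control).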

smallflower flatsedge = test: Test B flood test smallflower flatsedge; assay type: in vivo, Cyperus difformis
Summary of the method: (§2)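 Each value is a visual injury score relative to controls, with 10 meaning complete control and 0 no effect. Evaluation took place twelve to sixteen days after the 2-leaf-stage plants were treated and kept in the greenhouse.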

cocklebur = test: Test B pre/postemergence cocklebur; assay type: in vivo, Xanthium strumarium
Summary of the method: as §1

purple nutsedge = test: Test B pre/postemergence purple nutsedge; assay type: in vivo, Cyperus rotundus
Summary of the method: as §1

bamyardgrass = test: Test B flood test barnyardgrass; assay type: in vivo, Echinochloa crus-galli
Summary of the method: as §2

duck salad = test: Test B flood test duck salad; assay type: in vivo, Heteranthera limosa
Summary of the method: as §2

morningglory = test: Test B pre/postemergence morningglory; assay type: in vivo, Ipomoea hederacea
Summary of the method: as §1

wheat = test: Test B pre/postemergence wheat; assay type: in vivo, Triticum aestivum
Summary of the method: as §1

wild oat = test: Test B pre/postemergence wild oat; assay type: in vivo, Avena fatua
Summary of the method: as §1

bedstraw = test: Test B pre/postemergence bedstraw; assay type: in vivo, Galium aparine
Summary of the method: as §1

blackgrass = test: Test B pre/postemergence blackgrass; assay type: in vivo, Alopecurus myosuroides
Summary of the method: as §1

pigweed = test: Test B pre/postemergence pigweed; assay type: in vivo, Amaranthus retroflexus
Summary of the method: as §1

soybean = test: Test B pre/postemergence soybean; assay type: in vivo, Glycine max
Summary of the method: as §1

giant foxtail = test: Test B pre/postemergence giant foxtail; assay type: in vivo, Setaria faberii
Summary of the method: as §1

sugar beet = test: Test B pre/postemergence sugar beet; assay type: in vivo, Beta vulgaris
Summary of the method: as §1

rape = test: Test B pre/postemergence rape; assay type: in vivo, Brassica napus
Summary of the method: as §1

[1] = Postemergence, Rate 125 g/ha, scale of 0 to 10 where 0 is no effect and 10 is complete control
[2] = Preemergence, Rate 62 g/ha, scale 0 to 10 (0 no effect, 10 complete control)
[3] = Preemergence, Rate 125 g/ha, 0 is no effect, 10 is complete control
[4] = Preemergence, Rate 250 g/ha, scale 0 to 10, 0 is no effect, 10 is complete control
[5] = Preemergence, Rate 500 g/ha, scale 0 to 10 (0 no effect, 10 complete control)
[6] = Rate 62 g/ha, Postemergence, scale of 0 to 10 where 0 is no effect and 10 is complete control
[7] = Rate 250 g/ha, Postemergence, scale 0 to 10, 0 is no effect, 10 is complete control
[8] = Rate 62 g/ha, headed Pre-emergence (flood test species), scale 0 to 10 (0 no effect, 10 complete control)
[9] = Rate 125 g/ha, Pre-emergence, flood test species, scale 0 to 10 where 0 is no effect and 10 is complete control
[10] = Rate 250 g/ha, headed Pre-emergence (flood test species), scale 0 to 10 (0 no effect, 10 complete control)
[11] = Rate 500 g/ha, headed Pre-emergence (flood test species), scale 0 to 10 (0 no effect, 10 complete control)
[12] = Rate 500 g/ha, Postemergence, scale 0 to 10

CC(C)N(C(=O)n1oc(=O)n(C(C)C)c1=O)c1ccc(F)cc1 [Compound 131]
6: Wheat plant response rating (wheat; [12]) | Redroot pigweed plant response rating (pigweed; [1]) | Plant response rating, Sugarbeets (sugar beet; [7])
5: B. signalgrass plant response rating (surinam grass; [1]) | Plant response rating, Cocklebur (cocklebur; [7]) | Cocklebur plant response rating (cocklebur; [12]) | Morningglory plant response rating (morningglory; [4]) | Plant response rating, Wheat (wheat; [7]) | Soybean plant response rating (soybean; [6])
4: B. signalgrass plant response rating (surinam grass; [6]) | Rape plant response rating (rape; [1])
2: Cocklebur plant response rating (cocklebur; [4]) | Cocklebur plant response rating (cocklebur; [5]) | Cocklebur plant response rating (cocklebur; [6]) | Nutsedge plant response rating (purple nutsedge; [12]) | Wheat plant response rating (wheat; [2]) | Wild oats plant response rating (wild oat; [6]) | Redroot pigweed plant response rating (pigweed; [6]) | Soybean plant response rating (soybean; [2]) | Sugarbeets plant response rating (sugar beet; [6])
9: B. signalgrass plant response rating (surinam grass; [5]) | B. signalgrass plant response rating (surinam grass; Rate 500 g/ha, Postemergence, scale of 0 to 10 where 0 is no effect and 10 is complete control) | Barnyardgrass plant response rating (bamyardgrass; [10]) | Plant response rating, Barnyardgrass (bamyardgrass; [11]) | Plant response rating, Ducksalad (duck salad; [11]) | Plant response rating, Wild oats (wild oat; [7]) | Plant response rating, Bedstraw (bedstraw; [7]) | Bedstraw plant response rating (bedstraw; Rate 500 g/ha, Postemergence, scale 0 to 10, 0 no effect, 10 complete control) | Blackgrass plant response rating (blackgrass; [12]) | Plant response rating, Giant foxtail (giant foxtail; [7]) | Giant foxtail plant response rating (giant foxtail; [12]) | Rape plant response rating (rape; [12])
1: Rape plant response rating (rape; [6])
10: Morningglory plant response rating (morningglory; [12]) | Wheat plant response rating (wheat; [5]) | Wild oats plant response rating (wild oat; [2]) | Wild oats plant response rating (0 to 10 scale) (wild oat; [3]) | Wild oats plant response rating (wild oat; [4]) | Wild oats plant response rating (wild oat; [5]) | Wild oats plant response rating (wild oat; [12]) | Bedstraw plant response rating (0 to 10 scale) (bedstraw; [3]) | Bedstraw plant response rating (bedstraw; [4]) | Bedstraw plant response rating (bedstraw; [5]) | Blackgrass plant response rating (blackgrass; [2]) | Blackgrass plant response rating (0 to 10 scale) (blackgrass; [3]) | Blackgrass plant response rating (blackgrass; [4]) | Blackgrass plant response rating (blackgrass; [5]) | Redroot pigweed plant response rating (0 to 10 scale) (pigweed; [3]) | Redroot pigweed plant response rating (pigweed; [4]) | Redroot pigweed plant response rating (pigweed; [5]) | Redroot pigweed plant response rating (pigweed; [12]) | Giant foxtail plant response rating (giant foxtail; [2]) | Giant foxtail plant response rating (0 to 10 scale) (giant foxtail; [3]) | Giant foxtail plant response rating (giant foxtail; [4]) | Giant foxtail plant response rating (giant foxtail; [5]) | Sugarbeets plant response rating (sugar beet; [4]) | Sugarbeets plant response rating (sugar beet; [5]) | Rape plant response rating (0 to 10 scale) (rape; [3]) | Rape plant response rating (rape; [4]) | Rape plant response rating (rape; [5])
0: S. Flatsedge plant response rating (smallflower flatsedge; [8]) | Cocklebur plant response rating (cocklebur; [2]) | Cocklebur plant response rating (0 to 10 scale) (cocklebur; [3]) | Nutsedge plant response rating (purple nutsedge; [1]) | Nutsedge plant response rating (purple nutsedge; [2]) | Nutsedge plant response rating (0 to 10 scale) (purple nutsedge; [3]) | Nutsedge plant response rating (purple nutsedge; [4]) | Nutsedge plant response rating (purple nutsedge; [5]) | Nutsedge plant response rating (purple nutsedge; [6]) | Plant response rating, Nutsedge (purple nutsedge; [7]) | Barnyardgrass plant response rating (bamyardgrass; [8]) | Barnyardgrass plant response rating (bamyardgrass; [9]) | Ducksalad plant response rating (duck salad; [8]) | Ducksalad plant response rating (duck salad; [9])
7: B. signalgrass plant response rating (surinam grass; [2]) | Ducksalad plant response rating (duck salad; [10]) | Morningglory plant response rating (morningglory; [1]) | Morningglory plant response rating (morningglory; [5]) | Morningglory plant response rating (morningglory; [6]) | Bedstraw plant response rating (bedstraw; [6]) | Redroot pigweed plant response rating (pigweed; [2]) | Soybean plant response rating (soybean; [1]) | Sugarbeets plant response rating (sugar beet; [2]) | Plant response rating, Rape (rape; [7])
8: B. signalgrass plant response rating (0 to 10 scale) (surinam grass; [3]) | B. signalgrass plant response rating (surinam grass; [4]) | Plant response rating, B. signalgrass (surinam grass; [7]) | S. Flatsedge plant response rating (smallflower flatsedge; [10]) | Plant response rating, S. Flatsedge (smallflower flatsedge; [11]) | Plant response rating, Morningglory (morningglory; [7]) | Wheat plant response rating (0 to 10 scale) (wheat; [3]) | Wheat plant response rating (wheat; [4]) | Bedstraw plant response rating (bedstraw; [1]) | Blackgrass plant response rating (blackgrass; [1]) | Blackgrass plant response rating (blackgrass; [6]) | Plant response rating, Blackgrass (blackgrass; [7]) | Plant response rating, Redroot pigweed (pigweed; [7]) | Soybean plant response rating (soybean; [4]) | Soybean plant response rating (soybean; [5]) | Plant response rating, Soybean (soybean; [7]) | Soybean plant response rating (soybean; [12]) | Giant foxtail plant response rating (giant foxtail; [1]) | Giant foxtail plant response rating (giant foxtail; [6]) | Sugarbeets plant response rating (0 to 10 scale) (sugar beet; [3]) | Sugarbeets plant response rating (sugar beet; [12]) | Rape plant response rating (rape; [2])
3: S. Flatsedge plant response rating (smallflower flatsedge; [9]) | Cocklebur plant response rating (cocklebur; [1]) | Morningglory plant response rating (morningglory; [2]) | Morningglory plant response rating (0 to 10 scale) (morningglory; [3]) | Wheat plant response rating (wheat; [1]) | Wheat plant response rating (wheat; [6]) | Wild oats plant response rating (wild oat; [1]) | Soybean plant response rating (0 to 10 scale) (soybean; [3]) | Sugarbeets plant response rating (sugar beet; [1])
